Entries after “also recorded” stand apart in the source; their conditions may differ.
How the values were obtained:
[1] = Sensory evaluation test of hexanoic acid odor inhibition; type: in vivo
Experimental: Cotton balls were introduced into a glass bottle (Hakuyo Glass Co., Ltd. No. 11, capacity 110 ml), and hexanoic acid diluted 100 times with propylene glycol, nonanoic acid diluted 10 times with propylene glycol, or isovaleric acid diluted 1000 times with propylene glycol, as a malodor, and a test substance were added dropwise in an amount of […] to the cotton balls. The glass bottle was left to stand overnight at room temperature, and the odor molecules were sufficiently volatilized in the glass bottle. A sensory evaluation test was carried out by a panel of three panelists (5 panelists for isovaleric acid), and while the intensity of odor in the case of adding dropwise the malodor alone was rated as 5, the intensity of the malodor in the case of incorporating a test substance was evaluated on the basis of a system of 20 grades from 0 point to 10 points (0.5 points per grade).
Regarding the test substance, florhydral (Givaudan SA), bourgeonal (Givaudan SA), hydroxycitronellal (Givaudan SA, International Flavors & Fragrances, Inc., and the like), 4-isopropylcyclohexanecarbaldehyde (synthesized according to a method described in JP-A-2-188549), 4-(2-methoxyphenyl)-2-methyl-2-butanol (JP-A-9-111281), florosa (Givaudan SA), isocyclocitral (Givaudan SA, International Flavors & Fragrances, Inc., and the like), tripral (International Flavors & Fragrances, Inc.), and Pollenal II (Kao Corp.), which had been diluted 100 times with propylene glycol, were used for hexanoic acid; florhydral that had been diluted 10 times with propylene glycol was used for nonanoic acid; and florhydral that had been diluted 1000 times with propylene glycol was used for isovaleric acid.

OR10A6 = target: T1, OR10A6 (Homo sapiens, UniProt Q8NH74); experiment: Luciferase reporter gene assay, OR10A6 expressed in HEK293 cells; type: cell-based; details: for Inhibition ratio of OR10A6 response: response to hexanoic acid, test substance added together with hexanoic acid, HEK293; for Response of OR10A6 to the odor substance: fold increase of luciferase emission, 1 mM hexanoic acid or 300 μM nonanoic acid, or concentration series up to 1000 μM
T1 construct: expressed in transfected cells; host or cells: HEK293
T1 sequence (Q8NH74 1-314): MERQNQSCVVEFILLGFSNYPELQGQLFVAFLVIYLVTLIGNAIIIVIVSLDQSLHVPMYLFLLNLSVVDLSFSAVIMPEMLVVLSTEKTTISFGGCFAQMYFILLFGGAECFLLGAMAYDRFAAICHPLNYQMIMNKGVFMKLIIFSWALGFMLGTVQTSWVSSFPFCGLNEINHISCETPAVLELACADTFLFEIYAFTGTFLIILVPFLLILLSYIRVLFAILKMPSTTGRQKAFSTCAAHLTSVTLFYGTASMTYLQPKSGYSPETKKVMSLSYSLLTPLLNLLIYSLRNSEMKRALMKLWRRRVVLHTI
Experimental: (§1) Cloning of human olfactory receptors was performed based on the sequence information registered in GenBank, through PCR with human genomic DNA female (G1521: Promega) as a template. Each of the genes amplified through PCR was inserted into a pENTR vector (Invitrogen) according to an instruction manual. Then, the gene-inserted vector was digested with NotI and AscI, and the obtained fragments were inserted into NotI and AscI sites located downstream of the Flag-Rho tag sequence in the pME18S vector.
(§2) Each of the 350 types of human olfactory receptors was expressed in HEK293 cells. A reaction solution having a composition shown in Table 2 was prepared on a clean bench, and left to stand for 15 minutes. The solution was dispensed to each well of a 96-well plate (BD). Subsequently, […] cells (100 μL, 3×10^5 cells/cm^2) were seeded in each well and cultured for 24 hours in an incubator at 37° C. and under 5% CO2 conditions.
(§3) The olfactory receptor expressed in HEK293 cell was conjugated with cell-intrinsic Gas to activate adenylate cyclase, and thereby the level of intracellular cAMP was increased. For the measurement of the response to odor in this study, the luciferase reporter gene assay was used, in which an increase in the amount of intracellular cAMP was monitored by using the emission value originating from firefly luciferase gene (fluc2P-CRE-hygro) as an indicator. Furthermore, a gene product obtained by fusing renilla luciferase gene in the downstream of CMV promoter (hRluc-CMV) was simultaneously introduced, and this was used as an internal standard for correcting an error in the transgenesis efficiency or the number of cells. The medium was removed from the culture prepared in the above-described section 3) by using a Pipetman, and 75 μl of a solution containing an odor substance (1 mM hexanoic acid or 300 μM nonanoic acid) prepared in CD293 medium (Invitrogen) was added thereto. The cells were cultured for 4 hours in a CO2 incubator, and the luciferase gene was sufficiently expressed in the cells. For the measurement of luciferase activity, the measurement was carried out by using a Dual-Glo™ luciferase assay system (Promega) according to the operation manual of the product. A value calculated by dividing the emission value, derived from a firefly luciferase induced by the stimulation with an odor substance, by the emission value in cells that were not-stimulated with an odor substance, was designated as a fold increase, and used as an index of response intensity.
(§4) OR2W1, OR10A6, OR51E1, OR51I2, and OR51L1 were respectively expressed in HEK293 cells by the same method as that used in Example 1, and a luciferase assay was carried out. In the luciferase assay, hexanoic acid was used as the odorous substance, and test substances were added together with hexanoic acid. The response of the olfactory receptors to hexanoic acid was measured, and a decrease in the receptor response to the addition of test substances was evaluated.
(§5) The inhibition ratios of the receptor response to test substances were calculated as follows. The emission value (Y) obtained from the cells in which the same receptors were introduced but no odor stimulation was conducted, was subtracted from the emission value derived from firefly luciferase (X) induced by odor stimulation with hexanoic acid alone. Similarly, the emission value (Y) obtained from the cells in which no odor stimulation was conducted, was subtracted from the emission value (Z) caused by stimulation with a mixture of hexanoic acid and a test substance. By the following calculation formula, the inhibitory activity of the test substance to receptor response was calculated based on the increment of the emission value (X−Y) caused by stimulation of hexanoic acid alone. Multiple independent experiments were performed in duplicate, and the average of each experiment was obtained. Inhibition ratio (%)={1−(Z−Y)/(X−Y)}×100

OR2W1 = target: T2, OR2W1 (Homo sapiens, UniProt Q9Y3N9); experiment: Luciferase reporter gene assay, OR2W1 expressed in HEK293 cells; type: cell-based; details: for Response of OR2W1 to the odor substance: fold increase of luciferase emission, 1 mM hexanoic acid or 300 μM nonanoic acid, or concentration series up to 1000 μM
T2 construct: expressed in transfected cells; host or cells: HEK293
T2 sequence (Q9Y3N9 1-320): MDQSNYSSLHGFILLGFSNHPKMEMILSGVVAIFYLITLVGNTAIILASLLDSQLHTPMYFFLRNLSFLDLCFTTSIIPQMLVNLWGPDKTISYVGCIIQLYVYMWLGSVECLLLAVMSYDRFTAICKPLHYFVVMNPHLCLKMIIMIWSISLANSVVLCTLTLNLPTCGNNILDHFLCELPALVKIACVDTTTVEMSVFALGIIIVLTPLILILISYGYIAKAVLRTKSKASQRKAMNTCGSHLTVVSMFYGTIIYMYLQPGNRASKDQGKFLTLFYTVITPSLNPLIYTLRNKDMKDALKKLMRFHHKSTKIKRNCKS
Experimental: as §1, §2, §3, §4
as §5, with “(%)={1−(Z−Y)/(X−Y)}×100 […]” for “(%)={1−(Z−Y)/(X−Y)}×100”

OR51I2 = target: T3, OR51I2 (Homo sapiens, UniProt Q9H344); experiment: Luciferase reporter gene assay, OR51I2 expressed in HEK293 cells; type: cell-based; details: for Response of OR51I2 to the odor substance: fold increase of luciferase emission, 1 mM hexanoic acid or 300 μM nonanoic acid, or concentration series up to 1000 μM
T3 construct: expressed in transfected cells; host or cells: HEK293
T3 sequence (Q9H344 1-312): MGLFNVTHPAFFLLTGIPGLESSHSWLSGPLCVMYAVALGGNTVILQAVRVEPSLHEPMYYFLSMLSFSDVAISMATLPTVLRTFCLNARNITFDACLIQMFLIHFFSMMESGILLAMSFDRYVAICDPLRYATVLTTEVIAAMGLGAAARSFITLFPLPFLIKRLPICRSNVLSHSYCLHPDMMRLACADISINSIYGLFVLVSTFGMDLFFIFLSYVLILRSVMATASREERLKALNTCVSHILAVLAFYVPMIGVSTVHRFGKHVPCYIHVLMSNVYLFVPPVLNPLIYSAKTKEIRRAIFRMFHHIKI
Experimental: as §1, §2, §3, §4
as §5, with “(%)={1−(Z−Y)/(X−Y)}×100 […]” for “(%)={1−(Z−Y)/(X−Y)}×100”

OR51L1 = target: T4, OR51L1 (Homo sapiens, UniProt Q8NGJ5); experiment: Luciferase reporter gene assay, OR51L1 expressed in HEK293 cells; type: cell-based; details: for Response of OR51L1 to the odor substance: fold increase of luciferase emission, 1 mM hexanoic acid or 300 μM nonanoic acid, or concentration series up to 1000 μM
T4 construct: expressed in transfected cells; host or cells: HEK293
T4 sequence (Q8NGJ5 1-315): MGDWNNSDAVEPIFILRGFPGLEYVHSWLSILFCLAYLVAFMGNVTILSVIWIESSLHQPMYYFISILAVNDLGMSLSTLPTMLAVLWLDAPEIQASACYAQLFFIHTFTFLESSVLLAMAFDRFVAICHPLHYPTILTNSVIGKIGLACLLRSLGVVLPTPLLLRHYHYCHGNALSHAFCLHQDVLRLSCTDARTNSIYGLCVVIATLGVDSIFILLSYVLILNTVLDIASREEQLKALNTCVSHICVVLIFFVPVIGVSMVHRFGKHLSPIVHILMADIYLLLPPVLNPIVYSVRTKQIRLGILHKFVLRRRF
Experimental: as §1, §2, §3, §4
as §5, with “(%)={1−(Z−Y)/(X−Y)}×100 […]” for “(%)={1−(Z−Y)/(X−Y)}×100”

OR51E1 = target: T5, OR51E1 (Homo sapiens, UniProt Q8TCB6); experiment: Luciferase reporter gene assay, OR51E1 expressed in HEK293 cells; type: cell-based; details: for Response of OR51E1 to the odor substance: fold increase of luciferase emission, 1 mM hexanoic acid or 300 μM nonanoic acid, or concentration series up to 1000 μM
T5 construct: expressed in transfected cells; host or cells: HEK293
T5 sequence (Q8TCB6 1-318): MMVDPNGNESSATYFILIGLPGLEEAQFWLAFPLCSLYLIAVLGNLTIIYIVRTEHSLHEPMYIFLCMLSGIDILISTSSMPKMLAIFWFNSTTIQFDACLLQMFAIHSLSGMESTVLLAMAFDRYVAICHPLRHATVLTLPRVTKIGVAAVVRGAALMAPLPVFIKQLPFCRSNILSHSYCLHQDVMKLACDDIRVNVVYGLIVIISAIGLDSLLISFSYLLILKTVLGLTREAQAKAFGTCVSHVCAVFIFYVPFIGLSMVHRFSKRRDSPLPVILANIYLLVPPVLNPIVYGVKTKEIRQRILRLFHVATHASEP
Experimental: as §1, §2, §3, §4
as §5, with “(%)={1−(Z−Y)/(X−Y)}×100 […]” for “(%)={1−(Z−Y)/(X−Y)}×100”

[2] = 1 mM hexanoic acid, test substance 3, 10, 30, 100, 300 μM (FIG. 4)

Compound | Inhibition ratio of OR10A6 response (OR10A6) | Response of OR2W1 to the odor substance (OR2W1) | Response of OR51I2 to the odor substance (OR51I2) | Response of OR51L1 to the odor substance (OR51L1) | Response of OR51E1 to the odor substance (OR51E1) | Response of OR10A6 to the odor substance (OR10A6) | other results
CCCCCC(=O)O [hexanoic acid, reference compound] | – | exhibited response; also recorded: concentration-dependent response | exhibited response; also recorded: concentration-dependent response | exhibited response; also recorded: concentration-dependent response | exhibited response; also recorded: concentration-dependent response | exhibited response; also recorded: concentration-dependent response | –
CC1=CC(C)C(CO)CC1 (stereo not shown) [floralol, reference compound] | – | – | – | – | – | – | Inhibition of OR2W1 response to hexanoic acid (in words) (OR2W1; [2]): no response inhibiting effect; Inhibition of OR51I2 response to hexanoic acid (in words) (OR51I2; [2]): no response inhibiting effect; Inhibition of OR51L1 response to hexanoic acid (in words) (OR51L1; [2]): no response inhibiting effect; Inhibition of OR51E1 response to hexanoic acid (in words) (OR51E1; [2]): no response inhibiting effect; Inhibition of OR10A6 response (in words) (OR10A6): no response inhibiting effect
cresol [reference compound] | – | do not respond | do not respond | do not respond | do not respond | do not respond | –
CCCCCCCCC(=O)O [nonanoic acid, reference compound] | – | exhibited response | – | – | exhibited response | exhibited response | –

The next lines start with results.

Inhibition ratio of OR10A6 response (OR10A6) | Compound | Response of OR2W1 to the odor substance (OR2W1) | Response of OR51I2 to the odor substance (OR51I2) | Response of OR51L1 to the odor substance (OR51L1) | Response of OR51E1 to the odor substance (OR51E1) | Response of OR10A6 to the odor substance (OR10A6) | other results
2 (Inhibition ratio: 20% to 50%) | CC(C)CC1CC(C)(O)CCO1 (stereo not shown) [Florosa, tetrahydro-4-methyl-2-(2-methylpropyl)-2H-pyran-4-ol] | – | – | – | – | – | Intensity of odor ([1]; hexanoic acid odor, malodor alone rated as 5, 0 to 10 points, test substance diluted 100 times with propylene glycol, three panelists): 3.38; Inhibition of hexanoic acid odor (in words) ([1]; sensory test, test substance diluted 100 times with propylene glycol (FIG. 5, Table 4)): inhibit the hexanoic acid odor
1 (Inhibition ratio: 50% or higher) | CC(C)C1CCC(C)(C=O)CC1 (stereo not shown) [4-isopropyl-1-methylcyclohexanecarbaldehyde] | – | – | – | – | – | –

— patent US9526680B2, “Method for searching for malodor control agent, malodor control agent, and malodor control method” (Kao Corporation, priority 2010, dated 2016)
